Data on two molecules can be found in patent US12077503B2, “Substituted cyclic amides and their use as herbicides” (FMC CORPORATION, priority 2015, dated 2024).

Common to all, as to format: in vivo
Experiment [1] has as its system barnyardgrass (Echinochloa crus-galli). Put plainly: Test A postemergence. As to conditions: Echinochloa crus-galli, post-emergence, 240 h, postemergence; for pest or weed control at 125 g/ha: 125 g ai/ha, visual injury vs untreated controls after approx. 10 d, 0 = no effect, 100 = complete control, read-out: Barnyardgrass plant response rating (0 to 100 scale); for pest or weed control at 500 g/ha: 500 g ai/ha, 0 to 100 scale, 0 is no effect, 100 is complete control, read-out: Barnyardgrass plant response rating. The essentials: (§1)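 Greenhouse, ~10 d after spray; visual injury vs untreated controls, 0 = no effect, 100 = complete control. Preemergence: directed soil spray over planted seeds. Postemergence: plants 2–10 cm, 1–2 leaf stage. Loam/sand blend. Compound in non-phytotoxic solvent with surfactant.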

The subject of experiment [2] is pigweed (Amaranthus retroflexus). Put plainly: Test A postemergence. As to conditions: Amaranthus retroflexus, post-emergence, 240 h, postemergence; for pest or weed control at 125 g/ha: 125 g ai/ha, visual injury vs untreated controls after approx. 10 d, 0 = no effect, 100 = complete control, read-out: Pigweed plant response rating (0 to 100 scale); for pest or weed control at 500 g/ha: 500 g ai/ha, 0 to 100 scale, 0 is no effect, 100 is complete control, read-out: Pigweed plant response rating. In short, it runs like this: as §1

For experiment [3], the system named is ryegrass, Italian (Italian ryegrass, Lolium multiflorum). Put plainly: Test A postemergence. As to conditions: Lolium multiflorum, post-emergence, 240 h, postemergence; for pest or weed control at 125 g/ha: 125 g ai/ha, visual injury vs untreated controls after approx. 10 d, 0 = no effect, 100 = complete control, read-out: Ryegrass, Italian plant response rating (0 to 100 scale); for pest or weed control at 500 g/ha: 500 g ai/ha, 0 to 100 scale, 0 is no effect, 100 is complete control, read-out: Ryegrass, Italian plant response rating. The essentials:
as §1

Experiment [4] deals with giant foxtail (Setaria faberii). Nature of the experiment: Test A postemergence. As to conditions: Setaria faberi, post-emergence, 240 h, postemergence; for pest or weed control at 125 g/ha: 125 g ai/ha, visual injury vs untreated controls after approx. 10 d, 0 = no effect, 100 = complete control, read-out: Foxtail, Giant plant response rating (0 to 100 scale); for pest or weed control at 500 g/ha: 500 g ai/ha, 0 to 100 scale, 0 is no effect, 100 is complete control, read-out: Foxtail, Giant plant response rating. In short, it runs like this: as §1

Experiment [5] deals with barnyardgrass (Echinochloa crus-galli). Nature of the experiment: Test B flooded paddy test. As to conditions: Echinochloa crus-galli, 250 g ai/ha, Flood; 0 to 100 scale where 0 is no effect and 100 is complete control; read-out: Barnyardgrass plant response rating. In short, it runs like this: (§2)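 Evaluation by eye, against controls, occurred 13–15 d post-treatment in a greenhouse, using a 0 (no effect) to 100 (complete control) scale. Application was into the paddy water, 3 cm deep over the soil, on 2-leaf plants.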

A further experiment relates to rice (Oryra sativa). Nature of the experiment: Test B flooded paddy test. As to conditions: Oryza sativa, 250 g ai/ha, Flood; 0 to 100 scale where 0 is no effect and 100 is complete control; read-out: Rice plant response rating. In short, it runs like this: as §2
For experiment [6], the system named is sedge, umbrella (small-flower umbrella sedge, Cyperus difformis). Nature of the experiment: Test B flooded paddy test. As to conditions: Cyperus difformis, 250 g ai/ha, Flood; 0 to 100 scale where 0 is no effect and 100 is complete control; read-out: Sedge, Umbrella plant response rating. The essentials:
as §2

For experiment [7], the system named is ducksalad (Heteranthera limosa). Nature of the experiment: Test B flooded paddy test. As to conditions: Heteranthera limosa, 250 g ai/ha, Flood; 0 to 100 scale where 0 is no effect and 100 is complete control; read-out: Ducksalad plant response rating. In short, it runs like this:
as §2

Experiment [8] concerns barnyardgrass (Echinochloa crus-galli). Nature of the experiment: Test A preemergence. As to conditions: Echinochloa crus-galli, pre-emergence, 240 h, preemergence, 0 to 100 scale where 0 is no effect and 100 is complete control, read-out: Barnyardgrass plant response rating; for pest or weed control at 125 g/ha: 125 g ai/ha, visual injury rating, approximately 10 d; for pest or weed control at 500 g/ha: 500 g ai/ha. The essentials:
as §1

Experiment [9] deals with ragweed (common ragweed, Ambrosia elatior). Put plainly: Test A preemergence. As to conditions: Ambrosia artemisiifolia, pre-emergence, 240 h, preemergence, 0 to 100 scale where 0 is no effect and 100 is complete control, read-out: Ragweed plant response rating; for pest or weed control at 500 g/ha: 500 g ai/ha. The essentials:
as §1

Experiment [10] relates to pigweed (Amaranthus retroflexus). Put plainly: Test A preemergence. As to conditions: Amaranthus retroflexus, pre-emergence, 240 h, preemergence, 0 to 100 scale where 0 is no effect and 100 is complete control, read-out: Pigweed plant response rating; for pest or weed control at 125 g/ha: 125 g ai/ha, visual injury rating, approximately 10 d; for pest or weed control at 500 g/ha: 500 g ai/ha.

Experiment [11] has as its system ryegrass, Italian (Italian ryegrass, Lolium multiflorum). Put plainly: Test A preemergence. As to conditions: Lolium multiflorum, pre-emergence, 240 h, preemergence, 0 to 100 scale where 0 is no effect and 100 is complete control, read-out: Ryegrass, Italian plant response rating; for pest or weed control at 125 g/ha: 125 g ai/ha, visual injury rating, approximately 10 d; for pest or weed control at 500 g/ha: 500 g ai/ha. The essentials: as §1

Another experiment relates to Kochia (Kochia scoparia). Put plainly: Test A preemergence. As to conditions: Bassia scoparia, pre-emergence, 240 h, preemergence, 0 to 100 scale where 0 is no effect and 100 is complete control, read-out: Kochia plant response rating; for pest or weed control at 125 g/ha: 125 g ai/ha, visual injury rating, approximately 10 d; for pest or weed control at 500 g/ha: 500 g ai/ha. In short, it runs like this:
as §1

Experiment [12] has as its system giant foxtail (Setaria faberii). Nature of the experiment: Test A preemergence. As to conditions: Setaria faberi, pre-emergence, 240 h, preemergence, 0 to 100 scale where 0 is no effect and 100 is complete control, read-out: Foxtail, Giant plant response rating; for pest or weed control at 125 g/ha: 125 g ai/ha, visual injury rating, approximately 10 d; for pest or weed control at 500 g/ha: 500 g ai/ha. In short, it runs like this: as §1

As for `N#Cc1cc([C@H]2CNC(=O)[C@]2(O)C(=O)Nc2ccccc2F)ccc1F` [Compound 1200], the pest or weed control at 125 g/ha in experiment [1] amounted to 0%; in [2], 0%; in [3], 0%; in experiment [4] it was 0%; in experiment [8] it was 0%; in experiment [9] (125 g ai/ha, visual injury rating, approximately 10 d) it was 0%. Also, the pest or weed control at 125 g/ha (in [10]; in experiment [11]; with Kochia (Kochia scoparia); in [12]) was 0% each time. Also, the pest or weed control at 500 g/ha in [1], in experiment [2], in experiment [3], in experiment [4], in experiment [8] and in experiment [9] was 0% in each case. For the same molecule, the pest or weed control at 500 g/ha (in experiment [10]; in [11]; in the experiment on Kochia (Kochia scoparia); in experiment [12]) was 0% each time. Besides, the pest or weed control at 250 g/ha (in [5]; with rice (Oryra sativa); in experiment [6]; in [7]) was 0% in each case.

As for `Cc1cc([C@H]2CNC(=O)[C@@H]2C(=O)Nc2ccccc2C(F)(F)F)ccc1Cl` [Compound 1245], the pest or weed control at 125 g/ha in experiment [1] is 40%; in experiment [2], 0%; in experiment [3], 0%; in experiment [4], 20%; in experiment [8], 50%; in experiment [10], 0%. The pest or weed control at 125 g/ha turned out to be 0% in experiment [11], 0% with Kochia (Kochia scoparia) and 80% in experiment [12]. Moreover, the pest or weed control at 500 g/ha stood at 90% in [1]; 0% in [2]; 0% in [3]; 60% in experiment [4]; 80% in experiment [8]; 20% in [9]. The pest or weed control at 500 g/ha in experiment [10] stood at 0%; in [11], 60%; with Kochia (Kochia scoparia), 20%; in [12] it was 90%. Also, the pest or weed control at 250 g/ha in experiment [5] was determined as 0%; in the experiment on rice (Oryra sativa), 0%; in [6], 0%; in [7], 90%.
